From publication PMC2553842, “L-DOPA Is an Endogenous Ligand for OA1” (PLoS Biology, 2008)

Molecular target: T1, OA1 (Homo sapiens, UniProt P51810)
T1 construct: gene GPR143
Assay: radioligand saturation binding ([3H]-L-DOPA) on OA1-transfected CHO cells, with Scatchard analysis; supported by calcium response and beta-arrestin recruitment
Type: cell-based

T1 sequence (P51810 whole entry): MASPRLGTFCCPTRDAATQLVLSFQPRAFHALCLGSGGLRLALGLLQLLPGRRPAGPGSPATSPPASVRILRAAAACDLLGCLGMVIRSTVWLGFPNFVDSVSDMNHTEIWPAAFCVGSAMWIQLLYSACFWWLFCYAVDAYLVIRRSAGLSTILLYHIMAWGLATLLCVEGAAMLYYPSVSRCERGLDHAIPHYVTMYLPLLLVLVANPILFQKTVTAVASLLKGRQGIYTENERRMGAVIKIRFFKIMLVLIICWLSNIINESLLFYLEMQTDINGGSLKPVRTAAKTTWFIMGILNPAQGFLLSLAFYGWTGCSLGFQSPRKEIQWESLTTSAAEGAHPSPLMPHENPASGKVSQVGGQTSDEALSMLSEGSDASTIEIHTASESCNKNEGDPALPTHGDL

Kd: 9.35 µM
SMILES: N[C@@H](Cc1ccc(O)c(O)c1)C(=O)O [L-DOPA]
